Test system: mutant Huntington (HTT) protein
Assay: HTT Mutant HTRF iPSC assay (mHTT protein lowering)
Type: cell-based
Conditions: human iPSC derived from a HTT patient with a poly-Q49 mutation

SMILES	IC50 [nM]
Fc1cc(-c2cc(F)c3nc(C4CCNCC4)cn3c2)cc2[nH]ncc12 [Compound 52, 4-fluoro-6-(8-fluoro-2-(piperidin-4-yl)imidazo[1,2-a]pyridin-6-yl)-1H-indazole]	1000 to 9000
Cc1cn2nc(-c3cc(F)c4nc(N5CCC6(CCN(C)CC6)C5)oc4c3)cc(C)c2n1 [Compound 468, 6-(2,8-dimethylimidazo[1,2-b]pyridazin-6-yl)-4-fluoro-2-(8-methyl-2,8-diazaspiro[4.5]decan-2-yl)benzo[d]oxazole]	< 100
Cc1cn2nc(-c3cc(F)c4nc(N5CCCC(N6CCCCC6)C5)oc4c3)cc(C)c2n1 (stereo not drawn) [Compound 490, 2-([1,3′-bipiperidin]-1′-yl)-6-(2,8-dimethylimidazo[1,2-b]pyridazin-6-yl)-4-fluorobenzo[d]oxazole]	100 to 1000
Fc1cc(-c2ccc3[nH]ncc3c2)cn2cc(C3CCNCC3)nc12 [Compound 59, 5-(8-fluoro-2-(piperidin-4-yl)imidazo[1,2-a]pyridin-6-yl)-1H-indazole]	1000 to 9000
Cc1cn2cc(-c3cc(F)c4nn(C5CCNCC5)nc4c3)cc(F)c2n1 [Compound 137, 4-fluoro-6-(8-fluoro-2-methylimidazo[1,2-a]pyridin-6-yl)-2-(piperidin-4-yl)-2H-benzo[d][1,2,3]triazole]	100 to 1000
Cc1cc(-c2cc(F)c3nc(C4CCNCC4)nn3c2)cc2cn(C)nc12 [Compound 432, 6-(2,7-dimethyl-2H-indazol-5-yl)-8-fluoro-2-(piperidin-4-yl)-[1,2,4]triazolo[1,5-a]pyridine]	100 to 1000
Cc1cn2nc(-c3cc(F)c4nc(CC5CNCCO5)nn4c3)cc(C)c2n1 (stereo not drawn) [Compound 446, 2-((6-(2,8-dimethylimidazo[1,2-b]pyridazin-6-yl)-8-fluoro-[1,2,4]triazolo[1,5-a]pyridin-2-yl)methyl)morpholine]	100 to 1000
Cc1nc2c(C)cc(-c3cc(F)c4nc(C5CCN(C)CC5)cn4c3)nn2n1 [Compound 224]	< 100
Cn1cc2cc(-c3cc(F)c4nc(CC5CNC5)cn4c3)ccc2n1 [Compound 20, 5-(2-(azetidin-3-ylmethyl)-8-fluoroimidazo[1,2-a]pyridin-6-yl)-2-methyl-2H-indazole]	1000 to 9000
Cc1cn2cc(-c3cc(F)c4nc(CC5CNC5)cn4c3)cc(F)c2n1 [Compound 21, 2-(azetidin-3-ylmethyl)-8,8′-difluoro-2′-methyl-6,6′-biimidazo[1,2-a]pyridine]	1000 to 9000
CCN1CCC(c2cn3cc(-c4cc(C)c5nn(C)cc5c4)cc(F)c3n2)CC1 [Compound 25, 5-(2-(1-ethylpiperidin-4-yl)-8-fluoroimidazo[1,2-a]pyridin-6-yl)-2,7-dimethyl-2H-indazole]	100 to 1000
Cc1cn2nc(-c3cc(F)c4nc(NC(=O)C5CCCNC5)nn4c3)cc(C)c2n1 (single isomer, unassigned) [Compound 315]	100 to 1000
Cc1cn2nc(-c3cc(F)c4nc(NC(=O)C5CCN(C)CC5)nn4c3)cc(C)c2n1 [Compound 327, N-(6-(2,8-dimethylimidazo[1,2-b]pyridazin-6-yl)-8-fluoro-[1,2,4]triazolo[1,5-a]pyridin-2-yl)-1-methylpiperidine-4-carboxamide]	< 100
COc1cc(-c2cc(C)c3nn(C)cc3c2)cc2cn(C3CCNCC3)nc12 [Compound 544, 7-methoxy-2′,7′-dimethyl-2-(piperidin-4-yl)-2H,2′H-5,5′-biindazole]	1000 to 9000
Cc1nc2c(F)cc(-c3cc(F)c4nc(C5CCNCC5)cn4c3)cn2n1 [Compound 88, 8-fluoro-6-(8-fluoro-2-(piperidin-4-yl)imidazo[1,2-a]pyridin-6-yl)-2-methyl-[1,2,4]triazolo[1,5-a]pyridine]	100 to 1000
Cc1cc(-c2cc(F)c3nn(C4CCNCC4)nc3c2)nc2cn(C)nc12 [Compound 381, 6-(2,7-dimethyl-2H-pyrazolo[4,3-b]pyridin-5-yl)-4-fluoro-2-(piperidin-4-yl)-2H-benzo[d][1,2,3]triazole]	100 to 1000
CCN1CCC(n2nc3cc(-c4cc(C(F)F)c5nc(C)cn5n4)cc(F)c3n2)CC1 [Compound 377, 6-(8-(difluoromethyl)-2-methylimidazo[1,2-b]pyridazin-6-yl)-2-(1-ethylpiperidin-4-yl)-4-fluoro-2H-benzo[d][1,2,3]triazole]	100 to 1000
Cc1cn2nc(-c3cc(F)c4nn(C5CCNCC5)nc4c3)cc(C3CC3)c2n1 [Compound 387, 6-(8-cyclopropyl-2-methylimidazo[1,2-b]pyridazin-6-yl)-4-fluoro-2-(piperidin-4-yl)-2H-benzo[d][1,2,3]triazole]	100 to 1000
Cc1cn2nc(-c3cc(F)c4nc(NC(=O)C5CN(C(C)C)C5)cn4c3)cc2c(C)n1 [Compound 295, N-(6-(4,6-dimethylpyrazolo[1,5-a]pyrazin-2-yl)-8-fluoroimidazo[1,2-a]pyridin-2-yl)-1-isopropylazetidine-3-carboxamide]	< 100
CCN1CC[C@H](N(C)c2nc3c(F)cc(-c4cc(C)c5nc(C)cn5n4)cc3o2)C[C@@H]1C (stereo in doubt) [Compound 486, rel-6-(2,8-dimethylimidazo[1,2-b]pyridazin-6-yl)-N-((2R,4R)-1-ethyl-2-methylpiperidin-4-yl)-4-fluoro-N-methylbenzo[d]oxazol-2-amine]	< 100

SMILES	IC50 [nM]
COCCN1C[C@@H]2[C@H](C1)[C@H]2c1cn2cc(-c3cc(C)c4nc(C)cn4n3)cc(F)c2n1 [Compound 187, 6-(8-fluoro-2-((1R,5S,6r)-3-(2-methoxyethyl)-3-azabicyclo[3.1.0]hexan-6-yl)imidazo[1,2-a]pyridin-6-yl)-2,8-dimethylimidazo[1,2-b]pyridazine]	< 100
CCOc1nccc2oc(-c3cc(F)c4nc(C5CCNCC5)cn4c3)cc12 [Compound 41, 4-ethoxy-2-(8-fluoro-2-(piperidin-4-yl)imidazo[1,2-a]pyridin-6-yl)furo[3,2-c]pyridine]	1000 to 9000
Cc1cn2nc(-c3cc(F)c4nc(C5CCN(C)CC5)cn4c3)cc2c(C)n1 [Compound 220, 2-(8-fluoro-2-(1-methylpiperidin-4-yl)imidazo[1,2-a]pyridin-6-yl)-4,6-dimethylpyrazolo[1,5-a]pyrazine]	< 100
CCc1cc(-c2cc(F)c3nn(C4CCNCC4)nc3c2)nn2cc(C)nc12 [Compound 389, 6-(8-ethyl-2-methylimidazo[1,2-b]pyridazin-6-yl)-4-fluoro-2-(piperidin-4-yl)-2H-benzo[d][1,2,3]triazole]	100 to 1000
Cc1cc(-c2cc(F)c3nc(C4CCNCC4)cn3c2)nn2ccnc12 [Compound 102, 6-(8-fluoro-2-(piperidin-4-yl)imidazo[1,2-a]pyridin-6-yl)-8-methylimidazo[1,2-b]pyridazine]	100 to 1000
Cc1cn2nc(-c3cc(F)c4nc([C@H]5[C@@H]6CNC[C@@H]65)oc4c3)cc(C)c2n1 [Compound 455, 2-((1R,5S,6r)-3-azabicyclo[3.1.0]hexan-6-yl)-6-(2,8-dimethylimidazo[1,2-b]pyridazin-6-yl)-4-fluorobenzo[d]oxazole]	100 to 1000
Cc1cn2nc(-c3cc(F)c4nc(C[C@H]5C[C@@H](N)C5)nn4c3)cc(C)c2n1 [Compound 450, (1s,3s)-3-((6-(2,8-dimethylimidazo[1,2-b]pyridazin-6-yl)-8-fluoro-[1,2,4]triazolo[1,5-a]pyridin-2-yl)methyl)cyclobutan-1-amine]	100 to 1000
Cc1cn2nc(-c3cc(F)c4nc(NC(=O)C5CCCN(C)C5)cn4c3)cc(C)c2n1 (single isomer, unassigned) [Compound 278]	< 100
Cn1cc2cc(-c3cc(F)c4nc(C5CCNC5)cn4c3)ccc2n1 (stereo not drawn) [Compound 65, 5-(8-fluoro-2-(pyrrolidin-3-yl)imidazo[1,2-a]pyridin-6-yl)-2-methyl-2H-indazole]	1000 to 9000
Cc1cn2nc(-c3cc(F)c4nc(C5CCN(C(C)C)CC5)cn4c3)cc(C)c2n1 [Compound 47, 6-(8-fluoro-2-(1-isopropylpiperidin-4-yl)imidazo[1,2-a]pyridin-6-yl)-2,8-dimethylimidazo[1,2-b]pyridazine]	< 100
Cc1cn2nc(-c3cc(F)c4nc(NC(=O)C5CC6(CCNC6)C5)cn4c3)cc(C)c2n1 (stereo not drawn) [Compound 252, N-(6-(2,8-dimethylimidazo[1,2-b]pyridazin-6-yl)-8-fluoroimidazo[1,2-a]pyridin-2-yl)-6-azaspiro[3.4]octane-2-carboxamide]	100 to 1000
Cc1cc(-c2cc(F)c3nc(C4CCNCC4)cn3c2)nc2cn(C)nc12 [Compound 92, 5-(8-fluoro-2-(piperidin-4-yl)imidazo[1,2-a]pyridin-6-yl)-2,7-dimethyl-2H-pyrazolo[4,3-b]pyridine]	< 100
Cc1nc2c(C)cc(-c3cc(F)c4nn(C5CCNCC5)nc4c3)nn2n1 [Compound 390, 6-(7-fluoro-2-(piperidin-4-yl)-2H-benzo[d][1,2,3]triazol-5-yl)-2,8-dimethyl-[1,2,4]triazolo[1,5-b]pyridazine]	100 to 1000
Cc1cn2nc(-c3cc(F)c4nc(C5CCC6(CCN(C)C6)C5)cn4c3)cc(C)c2n1 (stereo not drawn) [Compound 232, 6-(8-fluoro-2-(2-methyl-2-azaspiro[4.4]nonan-7-yl)imidazo[1,2-a]pyridin-6-yl)-2,8-dimethylimidazo[1,2-b]pyridazine]	< 100
Cc1cn2nc(-c3cc(F)c4nc(NC5CCNC(C)(C)C5)oc4c3)cc(C)c2n1 (stereo not drawn) [Compound 485, 6-(2,8-dimethylimidazo[1,2-b]pyridazin-6-yl)-N-(2,2-dimethylpiperidin-4-yl)-4-fluorobenzo[d]oxazol-2-amine]	< 100
Cc1cn2nc(-c3cc(F)c4nc(NC(=O)C5CCCNC5)nn4c3)cc(C)c2n1 (single isomer, unassigned) [Compound 316]	100 to 1000
Cc1cn2nc(-c3cc(F)c4nc(C5CCN(C)CC5)oc4c3)cc(C)c2n1 [Compound 456, 6-(2,8-dimethylimidazo[1,2-b]pyridazin-6-yl)-4-fluoro-2-(1-methylpiperidin-4-yl)benzo[d]oxazole]	100 to 1000
Cc1cn2cc(-c3cc(F)c4[nH]c(C5CCNCC5)nc4c3)cc2c(C)n1 [Compound 145, 5-(1,3-dimethylpyrrolo[1,2-a]pyrazin-7-yl)-7-fluoro-2-(piperidin-4-yl)-1H-benzo[d]imidazole]	1000 to 9000
Cc1cn2nc(-c3cc(F)c4nc(C5CNC5)cn4c3)cc(C)c2n1 [Compound 64]	1000 to 9000
